How the values were obtained:
[1] = test system: MCF-7 breast cancer cells; details: MCF-7 cells, Singh et al. 1995, cited from earlier work
aromatase activity = details: IL-6 stimulated fibroblasts derived from sub-cutaneous adipose tissue; Singh et al. 1995; cited from earlier work
[2] = test system: IL-6 plus IL-6sR stimulated aromatase activity; assay: IL-6 plus IL-6sR stimulated aromatase activity in fibroblasts derived from normal breast tissue; type: cell-based; details: Arohib 125 μM added 3 h prior to IL-6 50 ng/ml + IL-6sR 100 ng/ml, serum-free medium
Procedure: Aromatase activity was assessed in primary cultures of stromal fibroblasts derived from sub-cutaneous adipose tissue. Cells were grown until 80% confluent when they were washed with Earle's balanced salt solution (5 ml) and cultured for 24 h in phenol red-free, serum-free Eagle's minimum essential medium. Experimental media were then added in the presence of dexamethasone (100 nmol/l), IL-6 (50 ng/ml, Bachem, Cambridge, U.K.), or IL-6 plus IL-6sR (250 ng/ml, R & D System Europe Ltd., Abingdon, U.K.) and incubated for a further 48 h.
Aromatase activity was assayed in intact fibroblast monolayers by measuring the production of hu 3H2O from [1β-^3H] androstenedione (15-30 Ci/mmol, NEN-DuPont, Stevenage, U.K.) over a 20 h period (Newton et al., 1986). Aromatase activity measured under these conditions was linear with respect to time for up to 20 h (Macdiarmid et al., 1994). Cell number was determined by counting cell nuclei using a Coulter counter.
To examine the ability of Arohib to block the interaction of IL-6sR with gp130, fibroblasts were derived from normal breast tissue and cultured in growth medium containing fetal calf serum. When cells were 80% confluent, this medium was removed and replaced with serum-free medium. Cells were then treated as shown below with the results illustrated in FIG. 2.

| Compound | effect on IL-6sR release [1] | further results |
| --- | --- | --- |
| 4-hydroxytamoxifen [4-OHT] | small stimulatory effect | effect on oestradiol-induced increase of IL-6sR release ([1]; with oestradiol): blocked the ability of oestradiol to increase IL-6sR release |
| C[C@]12CC[C@@H]3c4ccc(O)cc4CC[C@H]3[C@@H]1CC[C@@H]2O [Oestradiol, oestradiol] | markedly increased | – |
| IL-6: cytokine interleukin-6 | – | aromatase activity (in words) (aromatase activity): Significant arbmatase activity was detectable |
| TNFα | markedly increased | – |
| YRLRFELRYRAERSKT (PEPTIDE (1)..(16) sequence of a synthetic peptide corresponding to the regulatory site residues 249-264 of interleukin-6 receptor (IL-6R)) [Arohib, 16 amino acid peptide based upon part of the IL-6R external domain] | – | reduction in the ability of IL-6/IL-6sR to stimulate aromatase activity [2]: 67% |

Reference: patent publication US6384193B1, “Agents for the regulation of oestrogen synthesis” (Imperial College of Science Technology and Medicine, priority 1996, dated 2002)
